Test: Stability of redox conjugation product-sulfimide
Format: physicochemical
Conditions: salt form formed from S3 under strong acidic condition (1 N HCl); co-solvent d-MeOD/D2O=1:1; monitored by NMR after 1 h and 18 h
Method: The stability of sulfimides were tested by treatment of sulfimides S2 with 5 mM TCEP or treatment of sulfimides S3 with 1 N HCl, 1 N NaOH or 80° C. in co-solvent (d-MeOD/D2O=1:1). The reactions were monitored by NMR after 1 h and 18 h and the reaction conversions were calculated based on NMR data. Sulfimide S3 can be protonated under strong acidic condition to its salt form S4, which is stable in aqueous solution.

In the case of `CCNC(=O)N[S+](C)c1ccccc1.[Cl-]` (stereo not shown) [Compound S4], the “stability in aqueous solution” value was “stable”.

Reference: US11155530B2, “Urea-oxaziridines” (The Regents of the University of California, priority 2018, dated 2021)
